{"source": "patent US20090030079A1", "about": "(priority 2007, published 2009)", "key": {"[1]": {"test": "Decorporation of Cobalt-60: tissue distribution and excretion of IV administered Co-60 in rats", "assay_type": "in vivo, Male Wistar-Han rats", "details": "single oral dose 15 mg/kg; for Co-60 Dose % for animal group: single IV Co-60 14 KBq, 48 hr post exposure", "method": "Materials. Chloride stock solution of ^60Co as ^60CoCl2 was diluted with sterile saline solution to adjust to the desired activity and used for the IV dosing. Activity of the dosing solution was determined using automated Wallac 1480 (Perkin Elmer) gamma counter equipped with 3 inch NaI(TI) crystal shielded detector.\nAnimals. Male Wistar-Han rats were obtained from Charles River Breeding Laboratory (Raleigh, N.C.) with indwelling jugular vein cannula. Animals were provided food and water ad libitum during acclimatization. The light cycle was 12 hour light/12 hour dark and relative humidity and temperature maintained at 50±15% and 22±2° C. All animal use protocols were approved by the Institutional Animal Care and Use Committee at Battelle, Pacific Northwest Division and studies were performed according to the “Guide for the Care and Use of Laboratory Animals” (National Research Council, Washington D.C., 1996).\nDosing regimen. Animals were restricted from food overnight prior to exposure. At the time of exposure, groups of animals (N=6) received a single intravenous (IV) injection (0.2 mL) of ^60Co solution at 14.0±0.6 KBq dose in sterile saline via an indwelling jugular vein cannula. […] The actual doses delivered were calculated based on the individual animal weights (Table 3). One group of animals was dosed with the radionuclide without subsequent administration of the chelation material to serve as control group. Following dosing, animals were placed in Nalgene metabolism cages for separate collection of urine and feces. […] Animals were sacrificed 48 hr post radionuclide administration. At sacrifice, blood and tissues (liver, kidney, spleen, gastrointestinal tract, muscle, bone, bone marrow, and lung) were collected, weighed and counted for radioactivity using a Wallac 1480 gamma counter. Gamma count data were normalized to percent administered dose after adjusting the grams of tissue collected for total organ mass.\nData statistical evaluation. Each data group was subjected to Dixon's Q-test to evaluate for potential outliers. In this test Q parameter of 0.625 (N=6, 95% confidence level, a=0.05) was used (1). For each tissue, a preliminary F-test (95% confidence level, a=0.05) for the equality of variances of the control and each treatment group was performed using Excel software. If the calculated probability p value was less than 0.05, the variances were assumed to be not equal. Based on this information, “T-test: Two-Sample Assuming Unequal Variances” or “T-test: Two-Sample Assuming Equal Variances” (95% confidence level, a=0.05) was performed using Excel software. The calculated p-value less than 0.05 provides evidence to reject the null hypothesis of equal means. The obtained statistical parameters listed in Table 4 served as guidelines for data evaluation (Table 5; calculation assumes that total skeleton, blood, or muscle is approximately 7.3, 6, or 40% of the body weight of the animal, respectively; Co-60 in skeleton is calculated based on the femur data—R. P. Brown, M. D. Delp, S. L. Undstedt, L. R. Rhomberg, and R. P. Beliles, Physiological Parameter Values for Physiologically Based Pharmacokinetic Models. Toxicology and Industrial Health, 1997, 13(4): 407-484)."}, "[2]": {"details": "Bi^3+, cited from earlier work"}, "[3]": {"details": "Co^2+, cited from earlier work"}, "[4]": {"details": "Pd^2+, cited from earlier work"}, "[5]": {"details": "Cd^2+, cited from earlier work"}, "[6]": {"details": "Zn^2+, cited from earlier work"}, "[7]": {"details": "Cu^2+, cited from earlier work"}, "[8]": {"details": "Ag^1+; cited from earlier work"}, "[9]": {"details": "Hg^2+, cited from earlier work"}, "[10]": {"details": "Pb^2+, cited from earlier work"}, "[11]": {"test": "Decorporation of Polonium-210: tissue distribution of IV administered Po-210 in rats", "assay_type": "in vivo, Wistar-Han rats", "details": "for % Reduction of Po-210 vs Po-210 Control / effect on polonium-210 level (in words): oral 15 mg/kg x 5, day 6; for Po-210 dpm/gm for animal group: single IV Po-210 approx. 90 kBq, oral 15 mg/kg every 24 h x 5, sacrifice day 6", "method": "The digested sample was diluted with distilled water to reduce the nitric acid to approximately 1 M. An aliquot of the resulting solution was added to Ultima Gold XR liquid scintillation cocktail (Packard BioScience, Meriden, Conn.), counted and corrected for possible quenching."}, "[12]": {"details": "Ni^2+, cited from earlier work"}, "[13]": {"details": "Cr^2+; cited from earlier work"}}, "note": "Like-named read-outs stand apart in the source and are kept apart here.", "data": [{"molecule": "NCCNCCNCCN", "note": "[Trientine, N,N′-bis (2-aminoethyl)-1,2-ethanediamine]", "values": [{"measurement": "Co-60 Dose % for animal group", "setting": "[1]; Blood", "result": "0.18 ± 0.08", "unit": "%"}, {"measurement": "% Reduction of Co-60 vs Co-60 Control", "setting": "[1]; Blood, 48 hr", "result": "−98", "unit": "%"}, {"measurement": "Co-60 Dose % for animal group", "setting": "[1]; Bone Marrow", "result": "Below detection"}, {"measurement": "Co-60 Dose % for animal group", "setting": "[1]; Intestine", "result": "0.98 ± 0.23", "unit": "%"}, {"measurement": "% Reduction of Co-60 vs Co-60 Control", "setting": "[1]; Intestine, 48 hr", "result": 44, "unit": "%"}, {"measurement": "Co-60 Dose % for animal group", "setting": "[1]; Kidney", "result": "0.62 ± 0.04", "unit": "%"}, {"measurement": "% Reduction of Co-60 vs Co-60 Control", "setting": "[1]; Kidney, 48 hr", "result": 13, "unit": "%"}, {"measurement": "Co-60 Dose % for animal group", "setting": "[1]; Liver", "result": "2.00 ± 0.47", "unit": "%"}, {"measurement": "% Reduction of Co-60 vs Co-60 Control", "setting": "[1]; Liver, 48 hr", "result": 0, "unit": "%"}, {"measurement": "Co-60 Dose % for animal group", "setting": "[1]; Lung", "result": "0.13 ± 0.05", "unit": "%"}, {"measurement": "% Reduction of Co-60 vs Co-60 Control", "setting": "[1]; Lung, 48 hr", "result": 0, "unit": "%"}, {"measurement": "Co-60 Dose % for animal group", "setting": "[1]; Muscle", "result": "1.13 ± 0.24", "unit": "%"}, {"measurement": "% Reduction of Co-60 vs Co-60 Control", "setting": "[1]; Muscle, 48 hr", "result": 0, "unit": "%"}, {"measurement": "Co-60 Dose % for animal group", "setting": "[1]; Spleen", "result": "0.058 ± 0.013", "unit": "%"}, {"measurement": "% Reduction of Co-60 vs Co-60 Control", "setting": "[1]; Spleen, 48 hr", "result": 0, "unit": "%"}, {"measurement": "Co-60 Dose % for animal group", "setting": "[1]; Stomach", "result": "0.072 ± 0.012", "unit": "%"}, {"measurement": "% Reduction of Co-60 vs Co-60 Control", "setting": "[1]; Stomach, 48 hr", "result": 0, "unit": "%"}, {"measurement": "Co-60 Dose % for animal group", "setting": "[1]; Total Skeleton (from femur data)", "result": "0.41 ± 0.22", "unit": "%"}, {"measurement": "% Reduction of Co-60 vs Co-60 Control", "setting": "[1]; Total Skeleton, 48 hr", "result": 35, "unit": "%"}, {"measurement": "effect on blood levels of Co-60", "setting": "[1]; 48 hr", "result": "elevated"}, {"measurement": "effect on fecal elimination of Co-60", "setting": "[1]; day 1 post exposure", "result": "decreased"}, {"measurement": "effect on urinary elimination of Co-60", "setting": "[1]; day 1 post exposure", "result": "noticeably enhanced"}, {"measurement": "effect on total Co-60 excretion (urine and feces)", "setting": "[1]; monitored 2 days, not statistically significant, 15 mg/kg", "result": "appeared to accelerate"}, {"measurement": "binding stability constant (log K)", "setting": "[2]", "result": 21.9}, {"measurement": "binding stability constant (log K)", "setting": "[2]; listed as trientine", "result": "very strongly"}, {"measurement": "binding stability constant (log K)", "setting": "[3]", "result": 10.9}, {"measurement": "binding stability constant (log K)", "setting": "[3]; listed as trientine", "result": "fairly strong"}, {"measurement": "binding stability constant (log K)", "setting": "[4]", "result": 39.4}, {"measurement": "binding stability constant (log K)", "setting": "[4]; listed as trientine", "result": "very strongly"}, {"measurement": "binding stability constant (log K)", "setting": "[5]", "result": 10.6}, {"measurement": "binding stability constant (log K)", "setting": "[5]; listed as trientine", "result": "fairly strong"}, {"measurement": "binding stability constant (log K)", "setting": "[6]", "result": 12}, {"measurement": "binding stability constant (log K)", "setting": "[6]; listed as trientine", "result": "fairly strong"}, {"measurement": "binding stability constant (log K)", "setting": "[7]", "result": "20.05 (Cu^2+)"}, {"measurement": "binding stability constant (log K)", "setting": "[7]; listed as trientine", "result": "very strongly"}, {"measurement": "binding stability constant (log K)", "setting": "[8]", "result": 7.5}, {"measurement": "binding stability constant (log K)", "setting": "[9]", "result": 24.5}, {"measurement": "binding stability constant (log K)", "setting": "[9]; listed as trientine", "result": "very strongly"}, {"measurement": "binding stability constant (log K)", "setting": "[10]", "result": 10.4}, {"measurement": "binding stability constant (log K)", "setting": "[10]; listed as trientine", "result": "fairly strong"}, {"measurement": "% Reduction of Po-210 vs Po-210 Control", "setting": "[11]; Blood", "result": 0, "unit": "%"}, {"measurement": "Po-210 dpm/gm for animal group", "setting": "[11]; Blood", "result": "33273 ± 7289", "unit": "dpm/gm"}, {"measurement": "Po-210 dpm/gm for animal group", "setting": "[11]; Femur", "result": "22415 ± 2148", "unit": "dpm/gm"}, {"measurement": "% Reduction of Po-210 vs Po-210 Control", "setting": "[11]; Kidney", "result": 0, "unit": "%"}, {"measurement": "Po-210 dpm/gm for animal group", "setting": "[11]; Kidney", "result": "187883 ± 15839", "unit": "dpm/gm"}, {"measurement": "% Reduction of Po-210 vs Po-210 Control", "setting": "[11]; Liver", "result": 14, "unit": "%"}, {"measurement": "effect on polonium-210 level (in words)", "setting": "[11]; Liver", "result": "reduced"}, {"measurement": "Po-210 dpm/gm for animal group", "setting": "[11]; Liver", "result": "120883 ± 21221", "unit": "dpm/gm"}, {"measurement": "% Reduction of Po-210 vs Po-210 Control", "setting": "[11]; Lung", "result": 11, "unit": "%"}, {"measurement": "Po-210 dpm/gm for animal group", "setting": "[11]; Lung", "result": "74512 ± 22281", "unit": "dpm/gm"}, {"measurement": "Po-210 dpm/gm for animal group", "setting": "[11]; Spleen", "result": "269303 ± 47082", "unit": "dpm/gm"}, {"measurement": "% Reduction of Po-210 vs Po-210 Control", "setting": "[11]; femur", "result": 15, "unit": "%"}, {"measurement": "effect on polonium-210 level (in words)", "setting": "[11]; femur", "result": "reduced"}, {"measurement": "% Reduction of Po-210 vs Po-210 Control", "setting": "[11]; spleen", "result": 36, "unit": "%"}, {"measurement": "effect on polonium-210 level (in words)", "setting": "[11]; spleen", "result": "reduced"}, {"measurement": "binding stability constant (log K)", "setting": "[12]", "result": 13.8}, {"measurement": "binding stability constant (log K)", "setting": "[12]; listed as trientine", "result": "very strongly"}, {"measurement": "binding stability constant (log K)", "setting": "[13]", "result": 7.9}]}]}
